Earlier results in US20230149379A1, “COMBINATION THERAPY FOR ACUTE MYELOID LEUKEMIA” (Celgene Corporation, priority 2020, published 2023).

Key:
[1] = tested on: R/R AML; conditions: stepwise dosing
[2] = tested on: AML at relapse; conditions: administered alone

tumor lysis syndrome [1]	Compound	response in treating AML at relapse [2]
did not occur	CC1(C)CCC(CN2CCN(c3ccc(C(=O)NS(=O)(=O)c4ccc(NCC5CCOCC5)c([N+](=O)[O-])c4)c(Oc4cnc5[nH]ccc5c4)c3)CC2)=C(c2ccc(Cl)cc2)C1 [Venetoclax, 4-[4-[[2-(4-chlorophenyl)-4,4-dimethylcyclohexen-1-yl]methyl]piperazin-1-yl]-N-[3-nitro-4-(oxanylmethylamino)phenyl]sulfonyl-2-(1H-pyrrolo[2,3-b]pyridin-5-yloxy)benzamide]	
	CT-011: anti-PD-1 antibody, a humanized antibody	failed to show response
